From patent publication US9868772B2 (INDIANA UNIVERSITY RESEARCH AND TECHNOLOGY CORPORATION, priority 2012, dated 2018)
Numbered stars: 1 amine (or outer) side, 2 acyl side, 3 side chain; on linkers, the order of the positions; unused ones are H or OH. Square brackets hold non-standard residues; d marks the D form. Side chains are listed from the residue outwards. Peptide text beside a SMILES is read from it. * marks the point of attachment. γGlu = O=C(O)[C@H](CCC(=O)[*:2])N[*:1]; Desaminohistidyl = O=C(CCc1c[nH]cn1)*; Desaminotyrosyl = O=C(CCc1ccc(O)cc1)*; Palmitoyl = CCCCCCCCCCCCCCCC(=O)*; 2Thi = N[C@@H](Cc1cccs1)C(=O)O

Key:
Assay in all cases: cAMP induction, firefly luciferase reporter assay in HEK293 cells co-transfected with receptor
Type in all cases: cell-based
glucagon receptor = target: T1, glucagon receptor (Homo sapiens, UniProt P47871)
T1 construct: expressed in transfected cells; host or cells: HEK293
T1 sequence (P47871 26-477): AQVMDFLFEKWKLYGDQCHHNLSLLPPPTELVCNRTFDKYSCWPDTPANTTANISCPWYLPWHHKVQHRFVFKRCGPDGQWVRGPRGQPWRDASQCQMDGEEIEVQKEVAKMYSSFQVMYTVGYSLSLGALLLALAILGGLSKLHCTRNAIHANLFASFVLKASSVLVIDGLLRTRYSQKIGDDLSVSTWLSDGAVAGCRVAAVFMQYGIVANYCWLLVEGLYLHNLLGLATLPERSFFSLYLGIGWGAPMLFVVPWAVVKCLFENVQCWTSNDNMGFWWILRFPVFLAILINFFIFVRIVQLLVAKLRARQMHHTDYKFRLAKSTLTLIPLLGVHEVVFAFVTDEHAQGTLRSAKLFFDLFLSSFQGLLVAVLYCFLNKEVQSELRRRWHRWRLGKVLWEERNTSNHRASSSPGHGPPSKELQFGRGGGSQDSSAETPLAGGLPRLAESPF
Procedure: (§1) The ability of glucagon analogs to induce cAMP was measured in a firefly luciferase-based reporter assay. […] At the end of the incubation 100 microliters of LucLite luminescence substrate reagent (Perkin-Elmer, Wellesley, Mass.) were added to each well. […] Effective 50% concentrations were calculated by using Origin software (OriginLab, Northampton, Mass.

GLP-1 receptor = target: T2, GLP-1 receptor (Homo sapiens, UniProt P43220)
T2 construct: expressed in transfected cells; host or cells: HEK293
T2 sequence (P43220 24-463): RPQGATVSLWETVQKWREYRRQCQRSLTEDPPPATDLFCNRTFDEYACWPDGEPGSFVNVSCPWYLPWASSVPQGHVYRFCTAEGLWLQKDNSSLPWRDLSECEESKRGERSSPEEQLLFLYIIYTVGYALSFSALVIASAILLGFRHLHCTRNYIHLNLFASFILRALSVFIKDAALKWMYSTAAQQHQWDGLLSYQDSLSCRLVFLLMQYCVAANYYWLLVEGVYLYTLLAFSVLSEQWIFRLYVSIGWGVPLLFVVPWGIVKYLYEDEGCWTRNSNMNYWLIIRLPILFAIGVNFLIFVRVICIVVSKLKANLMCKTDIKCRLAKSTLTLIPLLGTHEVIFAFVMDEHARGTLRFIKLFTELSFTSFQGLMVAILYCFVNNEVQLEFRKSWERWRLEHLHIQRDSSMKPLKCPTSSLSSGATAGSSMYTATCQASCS
Procedure: as §1

GIP receptor = target: T3, GIP receptor (Homo sapiens, UniProt P48546)
T3 construct: expressed in transfected cells; host or cells: HEK293
T3 sequence (P48546 22-466): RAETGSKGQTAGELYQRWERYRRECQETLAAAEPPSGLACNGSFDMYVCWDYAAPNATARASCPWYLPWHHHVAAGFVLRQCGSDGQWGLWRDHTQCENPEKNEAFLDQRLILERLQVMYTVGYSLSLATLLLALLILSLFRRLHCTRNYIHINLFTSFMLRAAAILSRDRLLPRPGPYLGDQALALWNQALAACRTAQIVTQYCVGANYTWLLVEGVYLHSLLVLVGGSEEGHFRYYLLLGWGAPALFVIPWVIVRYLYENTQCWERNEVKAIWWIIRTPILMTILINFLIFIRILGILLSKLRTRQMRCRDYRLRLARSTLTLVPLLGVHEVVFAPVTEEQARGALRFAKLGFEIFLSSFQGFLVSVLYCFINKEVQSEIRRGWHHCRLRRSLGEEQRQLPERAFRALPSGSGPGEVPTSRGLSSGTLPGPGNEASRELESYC
Procedure: as §1

[1] = Table 1, analogs of SEQ ID NO: 37
[2] = Table 2, analogs of SEQ ID NO: 10

| SMILES | EC50 (glucagon receptor; [1]) [nM] | EC50 (GLP-1 receptor; [1]) [nM] | EC50 (GIP receptor; [1]) [nM] | EC50 (glucagon receptor; [2]) [nM] | EC50 (GLP-1 receptor; [2]) [nM] | EC50 (GIP receptor; [2]) [nM] |
| --- | --- | --- | --- | --- | --- | --- |
| CCCCCCCCCCCCCCCC(=O)N[C@@H](CCC(=O)NCCCC[C@H](NC(=O)[C@H](CC(=O)O)NC(=O)[C@H](CO)NC(=O)[C@@H](NC(=O)[C@H](Cc1ccccc1)NC(=O)[C@@H](NC(=O)CNC(=O)[C@H](CCC(N)=O)NC(=O)CNC(=O)[C@@H](N)Cc1cccs1)[C@@H](C)O)[C@@H](C)O)C(=O)N[C@@H](CO)C(=O)N[C@@H](CCCCN)C(=O)N[C@@H](Cc1ccc(O)cc1)C(=O)N[C@@H](CC(C)C)C(=O)N[C@@H](CC(=O)O)C(=O)N[C@@H](CCC(=O)O)C(=O)N[C@@H](CCCNC(=N)N)C(=O)N[C@@H](C)C(=O)N[C@@H](C)C(=O)N[C@@H](CCC(N)=O)C(=O)N[C@@H](CC(=O)O)C(=O)N[C@@H](Cc1ccccc1)C(=O)N[C@H](C(=O)N[C@@H](CCC(N)=O)C(=O)N[C@@H](Cc1c[nH]c2ccccc12)C(=O)N[C@@H](CC(C)C)C(=O)N[C@@H](CC(C)C)C(=O)N[C@@H](CCC(=O)O)C(=O)NCC(=O)NCC(=O)N1CCC[C@H]1C(=O)N[C@@H](CO)C(=O)N[C@@H](CO)C(=O)NCC(=O)N[C@@H](C)C(=O)N1CCC[C@H]1C(=O)N1CCC[C@H]1C(=O)N1CCC[C@H]1C(=O)N[C@@H](CO)C(N)=O)C(C)C)C(=O)O [compound 29] (H-[2Thi]GQGTFTSDK([γGlu-Palmitoyl])SKYLDERAAQDFVQWLLEGGPSSGAPPPS-NH2; N-terminus assumed) | 0.038 | 0.007 | 0.095 | – | – | – |
| CCCCCCCCCCCCCCCC(=O)N[C@@H](CCC(=O)NCCCC[C@H](NC(=O)[C@H](CC(=O)O)NC(=O)[C@H](CO)NC(=O)[C@@H](NC(=O)[C@H](Cc1ccccc1)NC(=O)[C@@H](NC(=O)CNC(=O)[C@H](CCC(N)=O)NC(=O)CNC(=O)CCc1c[nH]cn1)[C@@H](C)O)[C@@H](C)O)C(=O)N[C@@H](CO)C(=O)N[C@@H](CCCCN)C(=O)N[C@@H](Cc1ccc(O)cc1)C(=O)N[C@@H](CC(C)C)C(=O)N[C@@H](CC(=O)O)C(=O)N[C@@H](CCC(=O)O)C(=O)N[C@@H](CCCNC(=N)N)C(=O)N[C@@H](C)C(=O)N[C@@H](C)C(=O)N[C@@H](CCC(N)=O)C(=O)N[C@@H](CC(=O)O)C(=O)N[C@@H](Cc1ccccc1)C(=O)N[C@H](C(=O)N[C@@H](CCC(N)=O)C(=O)N[C@@H](Cc1c[nH]c2ccccc12)C(=O)N[C@@H](CC(C)C)C(=O)N[C@@H](CC(C)C)C(=O)N[C@@H](CCC(=O)O)C(=O)NCC(=O)NCC(=O)N1CCC[C@H]1C(=O)N[C@@H](CO)C(=O)N[C@@H](CO)C(=O)NCC(=O)N[C@@H](C)C(=O)N1CCC[C@H]1C(=O)N1CCC[C@H]1C(=O)N1CCC[C@H]1C(=O)N[C@@H](CO)C(N)=O)C(C)C)C(=O)O [compound 31] (Desaminohistidyl-GQGTFTSDK([γGlu-Palmitoyl])SKYLDERAAQDFVQWLLEGGPSSGAPPPS-NH2) | 0.022 | 0.003 | 0.226 | – | – | – |
| CCCCCCCCCCCCCCCC(=O)N[C@@H](CCC(=O)NCCCC[C@H](NC(=O)[C@H](CC(=O)O)NC(=O)[C@H](CO)NC(=O)[C@@H](NC(=O)[C@H](Cc1ccccc1)NC(=O)[C@@H](NC(=O)CNC(=O)[C@H](CCC(N)=O)NC(=O)[C@H](C)NC(=O)[C@H](Cc1ccc(O)cc1)NC(C)=O)[C@@H](C)O)[C@@H](C)O)C(=O)N[C@@H](CO)C(=O)N[C@@H](CCCCN)C(=O)N[C@@H](Cc1ccc(O)cc1)C(=O)N[C@@H](CC(C)C)C(=O)N[C@@H](CC(=O)O)C(=O)N[C@@H](CCC(=O)O)C(=O)N[C@@H](CCCNC(=N)N)C(=O)N[C@@H](C)C(=O)N[C@@H](C)C(=O)N[C@@H](CCC(N)=O)C(=O)N[C@@H](CC(=O)O)C(=O)N[C@@H](Cc1ccccc1)C(=O)N[C@H](C(=O)N[C@@H](CCC(N)=O)C(=O)N[C@@H](Cc1c[nH]c2ccccc12)C(=O)N[C@@H](CC(C)C)C(=O)N[C@@H](CC(C)C)C(=O)N[C@@H](CCC(=O)O)C(=O)NCC(=O)NCC(=O)N1CCC[C@H]1C(=O)N[C@@H](CO)C(=O)N[C@@H](CO)C(=O)NCC(=O)N[C@@H](C)C(=O)N1CCC[C@H]1C(=O)N1CCC[C@H]1C(=O)N1CCC[C@H]1C(=O)N[C@@H](CO)C(N)=O)C(C)C)C(=O)O [compound 155] (Ac-YAQGTFTSDK([γGlu-Palmitoyl])SKYLDERAAQDFVQWLLEGGPSSGAPPPS-NH2) | – | – | – | 0.007 | 0.06 | 0.037 |
| CCCCCCCCCCCCCCCC(=O)N[C@@H](CCC(=O)NCCCC[C@H](NC(=O)[C@H](CC(=O)O)NC(=O)[C@H](CO)NC(=O)[C@@H](NC(=O)[C@H](Cc1ccccc1)NC(=O)[C@@H](NC(=O)CNC(=O)[C@H](CCC(N)=O)NC(=O)[C@H](C)NC(=O)CCc1ccc(O)cc1)[C@@H](C)O)[C@@H](C)O)C(=O)N[C@@H](CO)C(=O)N[C@@H](CCCCN)C(=O)N[C@@H](Cc1ccc(O)cc1)C(=O)N[C@@H](CC(C)C)C(=O)N[C@@H](CC(=O)O)C(=O)N[C@@H](CCC(=O)O)C(=O)N[C@@H](CCCNC(=N)N)C(=O)N[C@@H](C)C(=O)N[C@@H](C)C(=O)N[C@@H](CCC(N)=O)C(=O)N[C@@H](CC(=O)O)C(=O)N[C@@H](Cc1ccccc1)C(=O)N[C@H](C(=O)N[C@@H](CCC(N)=O)C(=O)N[C@@H](Cc1c[nH]c2ccccc12)C(=O)N[C@@H](CC(C)C)C(=O)N[C@@H](CC(C)C)C(=O)N[C@@H](CCC(=O)O)C(=O)NCC(=O)NCC(=O)N1CCC[C@H]1C(=O)N[C@@H](CO)C(=O)N[C@@H](CO)C(=O)NCC(=O)N[C@@H](C)C(=O)N1CCC[C@H]1C(=O)N1CCC[C@H]1C(=O)N1CCC[C@H]1C(=O)N[C@@H](CO)C(N)=O)C(C)C)C(=O)O [compound 11] (Desaminotyrosyl-AQGTFTSDK([γGlu-Palmitoyl])SKYLDERAAQDFVQWLLEGGPSSGAPPPS-NH2) | 0.016 | 0.002 | 0.002 | – | – | – |
| CCCCCCCCCCCCCCCC(=O)N[C@@H](CCC(=O)NCCCC[C@H](NC(=O)[C@H](CC(=O)O)NC(=O)[C@H](CO)NC(=O)[C@@H](NC(=O)[C@H](Cc1ccccc1)NC(=O)[C@@H](NC(=O)CNC(=O)[C@H](CCC(=O)O)NC(=O)[C@H](C)NC(=O)[C@@H](Cc1ccc(O)cc1)NC(C)=O)[C@@H](C)O)[C@@H](C)O)C(=O)N[C@@H](CO)C(=O)N[C@@H](CCCCN)C(=O)N[C@@H](Cc1ccc(O)cc1)C(=O)N[C@@H](CC(C)C)C(=O)N[C@@H](CC(=O)O)C(=O)N[C@@H](CCC(=O)O)C(=O)N[C@@H](CCCNC(=N)N)C(=O)N[C@@H](C)C(=O)N[C@@H](C)C(=O)N[C@@H](CCC(N)=O)C(=O)N[C@@H](CC(=O)O)C(=O)N[C@@H](Cc1ccccc1)C(=O)N[C@H](C(=O)N[C@@H](CCC(N)=O)C(=O)N[C@@H](Cc1c[nH]c2ccccc12)C(=O)N[C@@H](CC(C)C)C(=O)N[C@@H](CC(C)C)C(=O)N[C@@H](CCC(=O)O)C(=O)NCC(=O)NCC(=O)N1CCC[C@H]1C(=O)N[C@@H](CO)C(=O)N[C@@H](CO)C(=O)NCC(=O)N[C@@H](C)C(=O)N1CCC[C@H]1C(=O)N1CCC[C@H]1C(=O)N1CCC[C@H]1C(=O)N[C@@H](CO)C(N)=O)C(C)C)C(=O)O [compound 141] | – | – | – | 0.419 | 0.006 | 0.002 |
| CCCCCCCCCCCCCCCC(=O)N[C@@H](CCC(=O)NCCCC[C@H](NC(=O)[C@H](CC(=O)O)NC(=O)[C@H](CO)NC(=O)[C@@H](NC(=O)[C@H](Cc1ccccc1)NC(=O)[C@@H](NC(=O)CNC(=O)[C@H](CCC(N)=O)NC(=O)[C@@H]1CCCN1C(=O)[C@H](N)Cc1c[nH]cn1)[C@@H](C)O)[C@@H](C)O)C(=O)N[C@@H](CO)C(=O)N[C@@H](CCCCN)C(=O)N[C@@H](Cc1ccc(O)cc1)C(=O)N[C@@H](CC(C)C)C(=O)N[C@@H](CC(=O)O)C(=O)N[C@@H](CCC(=O)O)C(=O)N[C@@H](CCCNC(=N)N)C(=O)N[C@@H](C)C(=O)N[C@@H](C)C(=O)N[C@@H](CCC(N)=O)C(=O)N[C@@H](CC(=O)O)C(=O)N[C@@H](Cc1ccccc1)C(=O)N[C@H](C(=O)N[C@@H](CCC(N)=O)C(=O)N[C@@H](Cc1c[nH]c2ccccc12)C(=O)N[C@@H](CC(C)C)C(=O)N[C@@H](CC(C)C)C(=O)N[C@@H](CCC(=O)O)C(=O)NCC(=O)NCC(=O)N1CCC[C@H]1C(=O)N[C@@H](CO)C(=O)N[C@@H](CO)C(=O)NCC(=O)N[C@@H](C)C(=O)N1CCC[C@H]1C(=O)N1CCC[C@H]1C(=O)N1CCC[C@H]1C(=O)N[C@@H](CO)C(N)=O)C(C)C)C(=O)O [compound 27] (H-[dH]PQGTFTSDK([γGlu-Palmitoyl])SKYLDERAAQDFVQWLLEGGPSSGAPPPS-NH2; N-terminus assumed) | 0.034 | 0.003 | 0.08 | – | – | – |
